For experiment [1], the target named is STAT3-gp130 phosphopeptide interaction (STAT3 SH2 domain) (Homo sapiens, UniProt P40763). The experiment can be described thus: Competition fluorescence polarization assay. Background: In fluorescence polarisation assays a small probe gives low polarisation when free and higher when bound to something large.
In the next experiment the target is STAT3:DNA binding. The settings on record: electrophoretic mobility shift assay measuring STAT3:DNA binding; cited from earlier work. On the technique in general: Mobility shift assays separate free from complexed probe on a gel.

Where a SMILES comes first, the peptide text is derived from it. [ ]: non-standard residue; d: D form. pY = N[C@@H](Cc1ccc(OP(=O)(O)O)cc1)C(=O)O

The term IC50 denotes the concentration that gives 50% inhibition.

Chain of STAT3-gp130 phosphopeptide interaction (STAT3 SH2 domain) (P40763 127-711): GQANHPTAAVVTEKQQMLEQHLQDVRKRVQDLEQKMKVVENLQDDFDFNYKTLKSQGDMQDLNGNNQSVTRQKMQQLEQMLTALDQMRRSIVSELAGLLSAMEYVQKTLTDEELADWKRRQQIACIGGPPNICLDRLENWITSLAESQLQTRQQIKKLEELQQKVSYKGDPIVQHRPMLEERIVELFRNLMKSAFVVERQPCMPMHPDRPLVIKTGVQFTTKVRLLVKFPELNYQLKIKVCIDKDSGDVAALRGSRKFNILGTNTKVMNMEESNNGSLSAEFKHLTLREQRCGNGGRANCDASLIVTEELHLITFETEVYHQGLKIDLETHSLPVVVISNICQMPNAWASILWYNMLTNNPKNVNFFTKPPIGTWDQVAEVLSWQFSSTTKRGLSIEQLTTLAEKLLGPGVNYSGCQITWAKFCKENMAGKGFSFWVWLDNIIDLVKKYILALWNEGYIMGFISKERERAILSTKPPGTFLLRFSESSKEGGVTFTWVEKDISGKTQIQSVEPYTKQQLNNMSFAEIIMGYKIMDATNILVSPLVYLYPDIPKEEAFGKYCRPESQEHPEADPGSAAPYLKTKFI

Compound `CC(=O)NCC(=O)N[C@@H](Cc1ccc(OP(=O)(O)O)cc1)C(=O)N[C@@H](CC(C)C)C(=O)N1CCC[C@H]1C(=O)N[C@@H](CCC(N)=O)C(=O)N[C@H](C(=O)N[C@H](C(N)=O)C(C)C)[C@@H](C)O` [ac-pTyr] (Ac-G[pY]LPQTV-NH2) registered a concentration for half-maximal inhibition (IC50) in experiment [1] of 0.61 µM.

With “Ac-G[pY]LPQTV-NH2 [gp130-derived phosphopeptide]”, on STAT3:DNA binding, the IC50 is 0.15 µM.

(Values after PMC7294595 (Bioorganic & medicinal chemistry, 2020).)
